Experimental data from PubChem BioAssay (NCI).
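Briefly, cells in 96-well plates were exposed to five compound concentrations for 48 h, and endpoints were estimated by linear interpolation. TGI is the concentration that stops growth completely.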

Columns and labels:
Assay in all cases: NCI tumour cell line growth inhibition, 48 h
[1] = system: SNB-19 CNS
[2] = system: TK-10 renal
[3] = system: HCC-2998 colon
[4] = system: SK-MEL-28 melanoma
[5] = system: HOP-92 NSCLC
[6] = system: SN12C renal
[7] = system: NCI/ADR-RES ovarian
[8] = system: RPMI-8226 leukemia
[9] = system: MDA-MB-435
[10] = system: EKVX NSCLC
[11] = system: T-47D breast
[12] = system: KM12 colon
[13] = system: OVCAR-3 ovarian
[14] = system: SW-620 colon
[15] = system: UACC-257 melanoma
[16] = system: COLO 205 colon
[17] = system: OVCAR-4 ovarian
[18] = system: SK-MEL-5 melanoma
[19] = system: MALME-3M melanoma
[20] = system: 786-0 renal
[21] = system: SR leukemia
[22] = system: ACHN renal
[23] = system: OVCAR-5 ovarian
[24] = system: MDA-MB-231 breast
[25] = system: PC-3 prostate
[26] = system: HS 578T breast
[27] = system: A549 NSCLC
[28] = system: HCT-15 colon
[29] = system: CAKI-1 renal
[30] = system: UACC-62 melanoma
[31] = system: MOLT-4 leukemia
[32] = system: HOP-62 NSCLC
[33] = system: NCI-H23 lung
[34] = system: SK-MEL-2 melanoma
[35] = system: OVCAR-8 ovarian
[36] = system: NCI-H460 lung
[37] = system: NCI-H522 lung
[38] = system: CCRF-CEM leukemia
[39] = system: DU-145 prostate
[40] = system: U251 CNS
[41] = system: SF-539 CNS
[42] = system: HT29 colon
[43] = system: UO-31 renal
[44] = system: LOX IMVI melanoma
[45] = system: SF-295 CNS
[46] = system: A498 renal
[47] = system: SNB-75 CNS
[48] = system: RXF 393 renal
[49] = system: K-562 leukemia
[50] = system: BT-549 breast
[51] = system: IGROV1 ovarian
[52] = system: MDA-N
[53] = system: SK-OV-3 ovarian
[54] = system: HCT-116 colon
[55] = system: MCF7 breast
[56] = system: HL-60(TB) leukemia
[57] = system: SF-268 CNS
[58] = system: M14 melanoma
[59] = system: NCI-H226 lung

For `CCOC(=O)CCC(NC(=O)OCc1ccccc1)C(=O)NNC(=O)OC(C)(C)C` (configuration not stated), the TGI [1] was over 100 µM, the TGI [2] was over 100 µM and the TGI [3] was over 100 µM. The TGI [4] was over 100 µM, the TGI [5] was over 100 µM and the TGI [6] was over 100 µM. The TGI [7] was over 100 µM, the TGI [8] was over 100 µM and the TGI [9] was over 100 µM. The TGI [10] was over 100 µM, the TGI [11] was over 100 µM and the TGI [12] was over 100 µM. The TGI [13] was over 100 µM, the TGI [14] was over 100 µM and the TGI [15] was over 100 µM. The TGI [16] was over 100 µM, the TGI [17] was over 100 µM and the TGI [18] was over 100 µM. For the same compound, the TGI [19] was over 100 µM, the TGI [20] was over 100 µM and the TGI [21] was over 100 µM. The TGI [22] was over 100 µM, the TGI [23] was over 100 µM and the TGI [24] was over 100 µM. It also gave a TGI [25] of over 100 µM, a TGI [26] of over 100 µM and a TGI [27] of over 100 µM. For the same compound, the TGI [28] was over 100 µM, the TGI [29] was over 100 µM and the TGI [30] was over 100 µM. The TGI [31] was over 100 µM, the TGI [32] was over 100 µM and the TGI [33] was over 100 µM. The TGI [34] was over 100 µM, the TGI [35] was over 100 µM and the TGI [36] was over 100 µM. The TGI [37] was over 100 µM, the TGI [38] was over 100 µM and the TGI [39] was over 100 µM. For the same compound, the TGI [40] was over 100 µM, the TGI [41] was over 100 µM and the TGI [42] was over 100 µM. The TGI [43] was over 100 µM, the TGI [44] was over 100 µM and the TGI [45] was over 100 µM. The TGI [46] was over 100 µM, the TGI [47] was over 100 µM and the TGI [48] was over 100 µM. The TGI [49] was over 100 µM, the TGI [50] was over 100 µM and the TGI [51] was over 100 µM. It also gave a TGI [52] of over 100 µM, a TGI [53] of over 100 µM and a TGI [54] of over 100 µM. It also gave a TGI [55] of over 100 µM, a TGI [56] of over 100 µM and a TGI [57] of over 100 µM. It also gave a TGI [58] of over 100 µM.

Compound `Cc1ccc(-c2cc(-c3ccc(Cl)cc3)nc(/N=C3\C(=O)N(CN4CCCCC4)c4ccc(Cl)cc43)n2)cc1` has a TGI [1] of 34.7 µM, a TGI [2] of 71.1 µM and a TGI [3] of 29.7 µM. For the same compound, the TGI [4] was over 100 µM, the TGI [5] was 51.2 µM and the TGI [6] was 62.3 µM. For the same compound, the TGI [7] was 62.4 µM, the TGI [9] was 42.9 µM and the TGI [10] was over 100 µM. For the same compound, the TGI [11] was over 100 µM, the TGI [12] was 35.4 µM and the TGI [13] was over 100 µM. It also gave a TGI [14] of over 100 µM, a TGI [15] of 71.1 µM and a TGI [16] of 80.5 µM. For the same compound, the TGI [17] was over 100 µM, the TGI [18] was 48.1 µM and the TGI [19] was over 100 µM. For the same compound, the TGI [20] was 44.6 µM, the TGI [22] was 92.5 µM and the TGI [23] was over 100 µM. The TGI [24] was over 100 µM, the TGI [59] was over 100 µM and the TGI [25] was over 100 µM. The TGI [26] was 49.4 µM, the TGI [27] was 57.2 µM and the TGI [28] was over 100 µM. For the same compound, the TGI [29] was 64.7 µM, the TGI [30] was over 100 µM and the TGI [31] was 63.4 µM. It also gave a TGI [32] of 98.2 µM, a TGI [33] of 51.5 µM and a TGI [34] of 39.3 µM. For the same compound, the TGI [35] was 38.8 µM, the TGI [36] was over 100 µM and the TGI [37] was 27.8 µM. For the same compound, the TGI [38] was over 100 µM, the TGI [39] was over 100 µM and the TGI [40] was 76.2 µM. For the same compound, the TGI [41] was 61.5 µM, the TGI [42] was over 100 µM and the TGI [44] was 53 µM. It also gave a TGI [45] of over 100 µM, a TGI [46] of 42.3 µM and a TGI [47] of over 100 µM. The TGI [48] was 33.2 µM, the TGI [49] was over 100 µM and the TGI [50] was over 100 µM. The TGI [51] was 34.2 µM, the TGI [52] was 46.2 µM and the TGI [53] was over 100 µM. The TGI [54] was 76.1 µM, the TGI [55] was 77.9 µM and the TGI [56] was 62.4 µM. The TGI [57] was 40.3 µM and the TGI [58] was 46.6 µM.

`COc1ccc(Cn2nc(OCc3ccccn3)c3cc([N+](=O)[O-])ccc32)cc1` was tested, and the TGI [1] was over 100 µM, the TGI [2] was over 100 µM and the TGI [3] was over 100 µM. It also gave a TGI [4] of over 100 µM, a TGI [6] of over 100 µM and a TGI [7] of over 100 µM. For the same compound, the TGI [8] was over 100 µM, the TGI [9] was over 100 µM and the TGI [11] was over 100 µM. The TGI [12] was over 100 µM, the TGI [13] was over 100 µM and the TGI [14] was over 100 µM. The TGI [15] was over 100 µM, the TGI [18] was over 100 µM and the TGI [19] was over 100 µM. For the same compound, the TGI [20] was over 100 µM, the TGI [21] was over 100 µM and the TGI [22] was over 100 µM. It also gave a TGI [23] of over 100 µM, a TGI [24] of over 100 µM and a TGI [59] of over 100 µM. It also gave a TGI [25] of over 100 µM, a TGI [26] of over 100 µM and a TGI [27] of over 100 µM. For the same compound, the TGI [28] was over 100 µM, the TGI [29] was over 100 µM and the TGI [30] was over 100 µM. The TGI [31] was over 100 µM, the TGI [32] was over 100 µM and the TGI [33] was over 100 µM. The TGI [34] was over 100 µM, the TGI [35] was over 100 µM and the TGI [36] was over 100 µM. It also gave a TGI [37] of over 100 µM, a TGI [38] of over 100 µM and a TGI [39] of over 100 µM. It also gave a TGI [41] of over 100 µM, a TGI [42] of over 100 µM and a TGI [43] of over 100 µM. It also gave a TGI [44] of over 100 µM, a TGI [45] of over 100 µM and a TGI [46] of over 100 µM. The TGI [48] was over 100 µM, the TGI [49] was over 100 µM and the TGI [50] was over 100 µM. It also gave a TGI [51] of over 100 µM, a TGI [52] of over 100 µM and a TGI [53] of over 100 µM. The TGI [55] was over 100 µM, the TGI [56] was over 100 µM and the TGI [57] was over 100 µM. It also gave a TGI [58] of over 100 µM.

For `CNc1ccc2nc(-c3ccc(OC(=O)N(C)C)cc3)cn2c1`, the TGI [1] was 29.6 µM, the TGI [2] was 34.3 µM and the TGI [3] was 81.2 µM. The TGI [4] was over 100 µM, the TGI [5] was 50 µM and the TGI [6] was 27.2 µM. The TGI [7] was 59.1 µM, the TGI [9] was 30.7 µM and the TGI [10] was 33.4 µM. It also gave a TGI [11] of 47.2 µM, a TGI [12] of 32.3 µM and a TGI [13] of over 100 µM. It also gave a TGI [14] of 51.4 µM, a TGI [15] of over 100 µM and a TGI [16] of 32.2 µM. It also gave a TGI [17] of 31.6 µM, a TGI [18] of 57.1 µM and a TGI [19] of over 100 µM. The TGI [20] was 27.6 µM, the TGI [21] was 44.1 µM and the TGI [22] was 37.3 µM. The TGI [23] was 46 µM, the TGI [24] was 31.5 µM and the TGI [59] was 37.4 µM. For the same compound, the TGI [25] was 29.5 µM, the TGI [26] was over 100 µM and the TGI [27] was 32.4 µM. The TGI [28] was 40.2 µM, the TGI [29] was 44.7 µM and the TGI [30] was 35.1 µM. The TGI [31] was 43 µM, the TGI [32] was 32.9 µM and the TGI [33] was 40.4 µM. It also gave a TGI [34] of 31.8 µM, a TGI [35] of 30.3 µM and a TGI [36] of 34.4 µM. It also gave a TGI [37] of 28.8 µM, a TGI [38] of 32.3 µM and a TGI [39] of over 100 µM. The TGI [40] was 28.8 µM, the TGI [42] was 34 µM and the TGI [43] was 35.4 µM. The TGI [44] was 31.6 µM, the TGI [45] was 31.5 µM and the TGI [46] was 32.2 µM. For the same compound, the TGI [48] was 26.1 µM, the TGI [49] was 49.7 µM and the TGI [50] was 31.6 µM. For the same compound, the TGI [51] was 31.8 µM, the TGI [52] was 38 µM and the TGI [53] was 33 µM. For the same compound, the TGI [54] was 33.5 µM, the TGI [55] was 43.6 µM and the TGI [56] was 62.3 µM. For the same compound, the TGI [57] was 30 µM and the TGI [58] was 36.9 µM.
